Patent publication US7935687B2, “Methods for treating spinal muscular atrophy using tetracycline compounds” (Paratek Pharmaceuticals, Inc., priority 2007, dated 2011)
Where two headings read alike, the source gives them in different places.

Key:
S. aureus (SA RN450) = assay: Antibacterial MIC, gram positive; format: cell-based; details: for MIC: Staphylococcus aureus
E. coli (EC D1-209) = assay: Antibacterial MIC, gram negative; format: cell-based; details: for MIC: Escherichia coli
[1] = CLSI methodology, 35° C., 18-24 hours

Compound	MIC Gram Positive (SA RN450) (S. aureus (SA RN450); [1])	MIC Gram Negative (EC D1-209) (E. coli (EC D1-209); [1])	also measured
COCCNCc1ccc(-c2ccc(O)c3c2CC2CC4C(N(C)C)C(O)=C(C(N)=O)C(=O)C4(O)C(O)=C2C3=O)cc1 (stereo not drawn) [BG]	*** (Good antibacterial activity (e.g., less than about 4 μg/mL))	*** (Good antibacterial activity (e.g., less than about 4 μg/mL))	–
CN(C)Cc1ccc(-c2ccc(O)c3c2CC2CC4C(N(C)C)C(O)=C(C(N)=O)C(=O)C4(O)C(O)=C2C3=O)[nH]1 (stereo not drawn) [BK]	*** (Good antibacterial activity (e.g., less than about 4 μg/mL))	* (weak antibacterial activity (greater than about 8 μg/mL))	–
CN(CCOC(C)(C)C)Cc1cccc(-c2ccc(O)c3c2CC2CC4C(N(C)C)C(O)=C(C(N)=O)C(=O)C4(O)C(O)=C2C3=O)c1 (stereo not drawn) [BM]	*** (Good antibacterial activity (e.g., less than about 4 μg/mL))	** (modest antibacterial activity (between about 4 and 8 μg/mL))	–
CN(C)C1C(O)=C(C(N)=O)C(=O)C2(O)C(O)=C3C(=O)c4c(O)ccc(C(=O)CNCC(C)(C)C)c4CC3CC12 (stereo not drawn) [BP]	*** (Good antibacterial activity (e.g., less than about 4 μg/mL))	* (weak antibacterial activity (greater than about 8 μg/mL))	–
CCOC(=O)N1CCN(CC(=O)c2ccc(O)c3c2CC2CC4C(N(C)C)C(O)=C(C(N)=O)C(=O)C4(O)C(O)=C2C3=O)CC1 (stereo not drawn) [BR]	*** (Good antibacterial activity (e.g., less than about 4 μg/mL))	* (weak antibacterial activity (greater than about 8 μg/mL))	–
CN(C)C1C(O)=C(C(N)=O)C(=O)C2(O)C(O)=C3C(=O)c4c(O)ccc(C(=O)CNCC(F)(F)F)c4CC3CC12 (stereo not drawn) [BT]	*** (Good antibacterial activity (e.g., less than about 4 μg/mL))	* (weak antibacterial activity (greater than about 8 μg/mL))	–
CN(C)C1C(O)=C(C(N)=O)C(=O)C2(O)C(O)=C3C(=O)c4c(O)ccc(C(=O)CN5CCN(C6CCCCC6)CC5)c4CC3CC12 (stereo not drawn) [BU]	*** (Good antibacterial activity (e.g., less than about 4 μg/mL))	*** (Good antibacterial activity (e.g., less than about 4 μg/mL))	–
C=CCNCC(=O)c1ccc(O)c2c1CC1CC3C(N(C)C)C(O)=C(C(N)=O)C(=O)C3(O)C(O)=C1C2=O (stereo not drawn) [BV]	*** (Good antibacterial activity (e.g., less than about 4 μg/mL))	* (weak antibacterial activity (greater than about 8 μg/mL))	–
COCC(=O)c1ccc(O)c2c1CC1CC3C(N(C)C)C(O)=C(C(N)=O)C(=O)C3(O)C(O)=C1C2=O (stereo not drawn) [BW]	*** (Good antibacterial activity (e.g., less than about 4 μg/mL))	* (weak antibacterial activity (greater than about 8 μg/mL))	–
CN(C)C1C(O)=C(C(N)=O)C(=O)C2(O)C(O)=C3C(=O)c4c(O)ccc(C(=O)CNCc5ccccn5)c4CC3CC12 (stereo not drawn) [BY]	*** (Good antibacterial activity (e.g., less than about 4 μg/mL))	* (weak antibacterial activity (greater than about 8 μg/mL))	–
CN(C)C1C(O)=C(C(N)=O)C(=O)C2(O)C(O)=C3C(=O)c4c(O)ccc(C(=O)CNCC(N)=O)c4CC3CC12 (stereo not drawn) [BZ]	–	–	MIC Gram Positive (SA RN450) (S. aureus (SA RN450)): ** (key: ***: Good antibacterial activity (e.g., less than about 4 μg/mL); **: modest antibacterial activity (between about 4 and 8 μg/mL); *: weak antibacterial activity (greater than about 8 μg/mL)); MIC Gram Negative (EC D1-209) (E. coli (EC D1-209)): * (key: ***: Good antibacterial activity (e.g., less than about 4 μg/mL); **: modest antibacterial activity (between about 4 and 8 μg/mL); *: weak antibacterial activity (greater than about 8 μg/mL))
COC(C)CNCC(=O)c1ccc(O)c2c1CC1CC3C(N(C)C)C(O)=C(C(N)=O)C(=O)C3(O)C(O)=C1C2=O (stereo not drawn) [CA]	*** (Good antibacterial activity (e.g., less than about 4 μg/mL))	* (weak antibacterial activity (greater than about 8 μg/mL))	–
CN(C)c1cc(-c2cccc(C(N)=O)c2)c(O)c2c1CC1CC3C(N(C)C)C(O)=C(C(N)=O)C(=O)C3(O)C(O)=C1C2=O (stereo not drawn) [CD]	** (modest antibacterial activity (between about 4 and 8 μg/mL))	* (weak antibacterial activity (greater than about 8 μg/mL))	–
CN(C)C1C(O)=C(C(N)=O)C(=O)C2(O)C(O)=C3C(=O)c4c(O)ccc(C(=O)Cn5ccnc5)c4CC3CC12 (stereo not drawn) [CF]	** (modest antibacterial activity (between about 4 and 8 μg/mL))	* (weak antibacterial activity (greater than about 8 μg/mL))	–
CC1=NCCN1CC(=O)c1ccc(O)c2c1CC1CC3C(N(C)C)C(O)=C(C(N)=O)C(=O)C3(O)C(O)=C1C2=O (stereo not drawn) [CH]	** (modest antibacterial activity (between about 4 and 8 μg/mL))	* (weak antibacterial activity (greater than about 8 μg/mL))	–
CN(C)CC(=O)N1CC=C(c2ccc(O)c3c2CC2CC4C(N(C)C)C(O)=C(C(N)=O)C(=O)C4(O)C(O)=C2C3=O)CC1 (stereo not drawn) [Compound AL]	*** (Good antibacterial activity (e.g., less than about 4 μg/mL))	* (weak antibacterial activity (greater than about 8 μg/mL))	–
CN(C)CCc1ccc(O)c2c1CC1CC3C(N(C)C)C(O)=C(C(N)=O)C(=O)C3(O)C(O)=C1C2=O (stereo not drawn) [Compound BD]	*** (Good antibacterial activity (e.g., less than about 4 μg/mL))	* (weak antibacterial activity (greater than about 8 μg/mL))	–
CN(C)CCC(=NOC(C)(C)C)c1ccc(O)c2c1CC1CC3C(N(C)C)C(O)=C(C(N)=O)C(=O)C3(O)C(O)=C1C2=O (stereo not drawn) [Compound CJ]	*** (Good antibacterial activity (e.g., less than about 4 μg/mL))	* (weak antibacterial activity (greater than about 8 μg/mL))	–
CN1CCN(C(=O)c2cccc(-c3ccc(O)c4c3CC3CC5C(N(C)C)C(O)=C(C(N)=O)C(=O)C5(O)C(O)=C3C4=O)c2)CC1 (stereo not drawn) [Compound C]	*** (Good antibacterial activity (e.g., less than about 4 μg/mL))	* (weak antibacterial activity (greater than about 8 μg/mL))	–
CN(C)CCNC(=O)c1cccc(-c2cc(N(C)C)c3c(c2O)C(=O)C2=C(O)[C@]4(O)C(=O)C(C(N)=O)=C(O)[C@@H](N(C)C)[C@@H]4C[C@@H]2C3)c1 [Compound V, (4S,4aS,5aR,12aS)-4,7-Bis-dimethylamino-9-[3-(2-dimethylamino-ethylcarbamoyl)-phenyl]-3,10,12,12a-tetrahydroxy-1,11-dioxo-1,4,4a,5,5a,6,11,12a-octahydro-naphthacene-2-carboxylic Acid Amide]	–	–	MIC (S. aureus (SA RN450); [1]): > 8 µg/mL; MIC (E. coli (EC D1-209); [1]): > 8 µg/mL
CN(C)CCCNC(=O)c1cccc(-c2cc(N(C)C)c3c(c2O)C(=O)C2=C(O)[C@]4(O)C(=O)C(C(N)=O)=C(O)[C@@H](N(C)C)[C@@H]4C[C@@H]2C3)c1 [Compound X]	* (weak antibacterial activity (greater than about 8 μg/mL))	* (weak antibacterial activity (greater than about 8 μg/mL))	–
CN(C)CCNC(=O)c1cccc(-c2ccc(O)c3c2C[C@H]2C[C@H]4CC(O)=C(C(N)=O)C(=O)[C@@]4(O)C(O)=C2C3=O)c1 [Compound Z, (4aS,5aR,12aS)-7-[3-(2-Dimethylamino-ethylcarbamoyl)-phenyl]-3,10,12,12a-tetrahydroxy-1,11-dioxo-1,4,4a,5,5a,6,11,12a-octahydro-naphthacene-2-carboxylic Acid Amide]	–	–	MIC (S. aureus (SA RN450); [1]): > 8 µg/mL; MIC (E. coli (EC D1-209); [1]): > 8 µg/mL
CN1CCN(C(=O)c2cccc(-c3ccc(O)c4c3CC3CC5C(N(C)C)C(O)=C(C(N)=O)C(=O)C5(O)C(O)=C3C4=O)c2)CC1 (stereo not drawn) [D]	* (weak antibacterial activity (greater than about 8 μg/mL))	* (weak antibacterial activity (greater than about 8 μg/mL))	–
CCCCNC(=O)c1cccc(-c2ccc(O)c3c2CC2CC4C(N(C)C)C(O)=C(C(N)=O)C(=O)C4(O)C(O)=C2C3=O)c1 (stereo not drawn) [F]	*** (Good antibacterial activity (e.g., less than about 4 μg/mL))	* (weak antibacterial activity (greater than about 8 μg/mL))	–
CN(C)C1C(O)=C(C(N)=O)C(=O)C2(O)C(O)=C3C(=O)c4c(O)ccc(-c5cnc6ccccc6c5)c4CC3CC12 (stereo not drawn) [G]	*** (Good antibacterial activity (e.g., less than about 4 μg/mL))	* (weak antibacterial activity (greater than about 8 μg/mL))	–
CN(C)CCN(C)C(=O)c1cccc(-c2ccc(O)c3c2CC2CC4C(N(C)C)C(O)=C(C(N)=O)C(=O)C4(O)C(O)=C2C3=O)c1 (stereo not drawn) [R]	*** (Good antibacterial activity (e.g., less than about 4 μg/mL))	* (weak antibacterial activity (greater than about 8 μg/mL))	–
CN(C)CCCOc1ccc(-c2ccc(O)c3c2CC2CC4C(N(C)C)C(O)=C(C(N)=O)C(=O)C4(O)C(O)=C2C3=O)cn1 (stereo not drawn) [W]	*** (Good antibacterial activity (e.g., less than about 4 μg/mL))	*** (Good antibacterial activity (e.g., less than about 4 μg/mL))	–
